The test system of one assay is NCI-H1781 cells. Kind of assay: Cellular proliferation in NCI-H1781 cells (CellTiter Glo). Type of assay: cell-based, human. To be noted: 120 h, redosed after 72 h. The procedure: (§1) In addition to the engineered cell lines, the following cell lines were used: BT474 (human breast carcinoma), N87 (human gastric carcinoma), NCI-H1781 (human lung adenocarcinoma), and A431 (human epidermoid carcinoma); all cell lines were obtained from the American Type Culture Collection (ATCC, Manassas, VA). NCI-H1781 were grown in complete RPMI 1640 (Life Technologies, Carlsbad, CA) supplemented with 15% fetal bovine serum (FBS, Life Technologies, Carlsbad, CA) and 1% Penicillin-Streptomycin (P/S, Life Technologies, Carlsbad, CA). N87 cells were grown in complete RPMI 1640 supplemented with 10% FBS and 1% P/S. BT474 and A431 cells were grown in DMEM (Life Technologies, Carlsbad, CA) supplemented with 10% FBS and 1% P/S. All cells were maintained and propagated in a humidified 5% CO2 incubator at 37° C.
(§2) Cell proliferation in adherent cells was investigated in two HER2 amplified cell lines (BT474, N87), and a HER2VC expressing cell line (NCI-H1781). BT474, NCI-H1781, and N87 were plated in their appropriate growth media supplemented with either 10% FBS (BT474, N87) or 15% FBS (NCI-H1781) and 1% P/S in 96-well white clear-bottom tissue culture plates (Costar, Sigma-Aldrich). The starting cell densities were 3500, 5500, and 5000 cells for BT474, NCI-H1781, and N87 cells, respectively. An 8-point standard curve with varying cell densities (starting at 50000 cells and serially diluting down 2-fold) was prepared for each cell line and read 6 h after plating. Cells were allowed to attach overnight prior to compound treatment. Compound solutions were prepared by serially diluting test compounds in DMSO (Sigma-Aldrich), then diluting 500× in their corresponding serum free media. Cells were treated by adding a 1:1 volume of test compound to a final concentration of […], 0.004, 0.0014, or 0.0005 μM, in 0.1% DMSO and 5% FBS (for BT474 and N87) or 7.5% FBS (NCI-H1781). In BT474 and NCI-H1781, cell media was replaced and cells were redosed with fresh test compound solutions after 72 h. Viability was determined by CellTiter Glo (Promega, Madison, WI) after 72 h for N87 cells, and after 120 h for BT474 and […] cells. The results were converted to cell numbers using a standard curve; growth inhibition (GI50 values) were determined by Graph Pad Prism. […] The results are provided in Table 4, under columns titled “BT474-GI50”, “N87-GI50”, and “NCI-H1781-GI50”.
Background: ATP-based viability assays read luminescence as a measure of living cells.

The target of another assay is T1, EGFR WT (Homo sapiens, UniProt P00533).
T1 construct: purchased Thermo Fisher, Carlsbad, CA ERBB1 PR7295B
T1 sequence (P00533 25-1210): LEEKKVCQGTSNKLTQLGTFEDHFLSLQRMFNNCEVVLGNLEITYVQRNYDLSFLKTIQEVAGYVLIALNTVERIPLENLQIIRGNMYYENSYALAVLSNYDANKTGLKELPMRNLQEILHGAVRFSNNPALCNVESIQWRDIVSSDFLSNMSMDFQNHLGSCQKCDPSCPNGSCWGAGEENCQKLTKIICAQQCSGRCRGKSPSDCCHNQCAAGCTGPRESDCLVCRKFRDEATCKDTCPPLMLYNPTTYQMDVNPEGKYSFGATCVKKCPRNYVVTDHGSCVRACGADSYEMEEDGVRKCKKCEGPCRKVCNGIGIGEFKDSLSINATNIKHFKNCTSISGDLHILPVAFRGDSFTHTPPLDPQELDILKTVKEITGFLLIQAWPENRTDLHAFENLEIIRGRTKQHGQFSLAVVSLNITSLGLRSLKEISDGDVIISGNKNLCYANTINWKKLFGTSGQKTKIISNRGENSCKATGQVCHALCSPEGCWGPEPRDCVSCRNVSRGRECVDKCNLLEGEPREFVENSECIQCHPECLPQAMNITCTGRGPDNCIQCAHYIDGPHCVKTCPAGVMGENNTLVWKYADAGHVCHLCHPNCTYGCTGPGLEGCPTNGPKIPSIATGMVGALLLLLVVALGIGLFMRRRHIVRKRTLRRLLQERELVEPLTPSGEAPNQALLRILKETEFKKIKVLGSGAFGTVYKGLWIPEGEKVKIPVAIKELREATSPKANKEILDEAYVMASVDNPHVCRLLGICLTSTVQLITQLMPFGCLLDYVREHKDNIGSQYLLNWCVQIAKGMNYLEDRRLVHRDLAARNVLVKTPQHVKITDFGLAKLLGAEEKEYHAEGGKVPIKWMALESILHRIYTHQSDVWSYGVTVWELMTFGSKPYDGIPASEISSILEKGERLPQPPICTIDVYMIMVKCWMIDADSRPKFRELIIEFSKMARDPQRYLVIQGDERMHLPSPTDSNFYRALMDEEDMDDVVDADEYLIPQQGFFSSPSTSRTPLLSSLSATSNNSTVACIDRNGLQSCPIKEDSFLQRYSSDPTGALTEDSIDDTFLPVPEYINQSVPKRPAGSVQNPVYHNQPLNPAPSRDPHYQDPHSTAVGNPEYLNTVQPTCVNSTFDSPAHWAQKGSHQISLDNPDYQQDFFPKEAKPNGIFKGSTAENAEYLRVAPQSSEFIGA
As to the kind of experiment: Enzymatic assay EGFR WT (method c). Type of assay: biochemical. To be noted: [EGFR WT]=2 nM, [ATP]=1 mM, [Peptide 22]=1 μM. The procedure, abridged: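 Microfluidic mobility-shift kinase assay with Peptide 22 (1 μM) in HEPES pH 7.5, MnCl2, MgCl2, Tween 20, TCEP. HER2 WT 12.5 nM and HER2 YVMA 5 nM each used 25 μM ATP; EGFR WT 2 nM used 1 mM ATP. IC50 came from initial-velocity (0–3600 s) percent inhibition, fitted to a variable-slope model.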

For a further assay, the target named is EGFR (Homo sapiens, UniProt P00533). Kind of assay: EGFR signaling (pEGFR Tyr1068/total EGFR MSD) in A431 cells. Type of assay: cell-based. Further details: endogenous in cells; host or cells: A431, N87. To be noted: for EC50: A431 cells, read-out: A431 pEGFR EC50; for Selectivity A431 EC50/BT474 EC50: ratio A431 pEGFR EC50 to BT474 pHER2 EC50; for Selectivity A431 EC50/HEKYVMA EC50: ratio A431 pEGFR EC50 to HEK YVMA pHER2 EC50. An outline of the steps: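 Serum-starved A431 cells were pretreated 1.5 h in 1% FBS with compound (0.005–10 μM, 0.1% DMSO), then stimulated with 100 ng/mL human EGF for 10 min. Lysate pEGFR Tyr1068 was measured by MSD and normalized to total EGFR as % DMSO control; EC50 from variable-slope sigmoidal fit.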
Sequence of EGFR (P00533 25-1210): as above

The next assay has as its system BT474 cells. Kind of assay: Cellular proliferation in BT474 cells (CellTiter Glo). Type of assay: cell-based, human. The following applies: 120 h, redosed after 72 h. The procedure:
as §1, §2

Where [1] appears, read: Homo sapiens, NCI-H1781, NCI-H1781 cells.
The mark [2] stands for this setting: Homo sapiens, BT-474, BT474 cells.

Bounds are passed on as bounds.

As a reminder, the GI50 is the concentration giving 50% growth inhibition. One may read the IC50 as the midpoint of a concentration-inhibition curve. A higher IC50 goes with weaker potency. The EC50 is the concentration that produces a half-maximal response.

Regarding `Cc1ccc(Oc2ccc(Nc3ncnc4sc5c(c34)CN(C(=O)/C=C/CN(C)C)C5)cc2C)cn1` [Compound 99, (E)-4-(dimethylamino)-1-(4-((3-methyl-4-((6-methylpyridin-3-yl)oxy)phenyl)amino)-5,7-dihydro-6H-pyrrolo[3′,4′:4,5]thieno[2,3-d]pyrimidin-6-yl)but-2-en-1-one], the GI50 in the assay on NCI-H1781 cells (setting [1]) is below 100 nM. At EGFR WT, this compound returned a half-maximal inhibitory concentration (IC50) above 10000 nM. On EGFR, the EC50 lay within 100 to 1000 nM; the “Selectivity A431 EC50/BT474 EC50” value is “B (B: ≥ 20 and < 100)”; the “Selectivity A431 EC50/HEKYVMA EC50” value was “B (B: ≥ 20 and < 100)”. The GI50 with BT474 cells (setting [2]) is below 100 nM.
As for `Cc1ccc(Oc2ccc(Nc3ncnc4sc5c(c34)C(C)CN(C(=O)C=CCN(C)C)C5)cc2C)cn1` (single isomer, unassigned) [Compound 106], in the assay on NCI-H1781 cells (NCI-H1781 cells), the concentration for 50% growth inhibition (GI50) is below 100 nM. For the same compound, on EGFR WT, the IC50 is above 10000 nM. Besides, at EGFR, the EC50 lay within 100 to 1000 nM; the “Selectivity A431 EC50/BT474 EC50” value was “B (B: ≥ 20 and < 100)”; the “Selectivity A431 EC50/HEKYVMA EC50” value is “C (C: ≥ 10 and < 20)”. Also, in the assay with BT474 cells (BT474 cells), the concentration for 50% growth inhibition (GI50) is below 100 nM.
For `Cc1ccc(Oc2ccc(Nc3ncnc4sc5c(c34)CCN(C(=O)/C=C/CN(C)C(C)(C)C)C5)cc2C)cn1` [Compound 33], the GI50 with NCI-H1781 cells (setting [1]) is below 100 nM. Also, at EGFR WT, the IC50 is above 10000 nM. Further, at EGFR, the EC50 lay in the range of 100 to 1000 nM; the “Selectivity A431 EC50/BT474 EC50” value is “B (B: ≥ 20 and < 100)”; the “Selectivity A431 EC50/HEKYVMA EC50” value was “C (C: ≥ 10 and < 20)”. In addition, in the assay with BT474 cells (setting [2]), the GI50 was below 100 nM.
`Cc1ccc(Oc2ccc(Nc3ncnc4sc5c(c34)CCN(C(=O)/C=C/CN(C)C)CC5)cc2C)cn1` [Compound 100, (E)-4-(dimethylamino)-1-(4-((3-methyl-4-((6-methylpyridin-3-yl)oxy)phenyl)amino)-8,9-dihydro-5H-pyrimido[5′,4′:4,5]thieno[2,3-d]azepin-7(6H)-yl)but-2-en-1-one]: the GI50 with NCI-H1781 cells (setting [1]) is below 100 nM. Also, the concentration for half-maximal inhibition (IC50) on EGFR WT is above 10000 nM. Besides, at EGFR, the EC50 was 100 to 1000 nM; the “Selectivity A431 EC50/BT474 EC50” value was “B (B: ≥ 20 and < 100)”; the “Selectivity A431 EC50/HEKYVMA EC50” value was “C (C: ≥ 10 and < 20)”. This compound yielded a GI50 in the assay on BT474 cells (setting [2]) below 100 nM.
In turn, `Cc1ccc(Oc2ccc(Nc3ncnc4sc5c(c34)C(C)CN(C(=O)/C=C/CN(C)C)C5)cc2C)cn1` (stereo not drawn) [Compound 98, (E)-4-(dimethylamino)-1-(5-methyl-4-((3-methyl-4-((6-methylpyridin-3-yl)oxy)phenyl)amino)-5,8-dihydropyrido[4′,3′:4,5]thieno[2,3-d]pyrimidin-7(6H)-yl)but-2-en-1-one] gave a GI50 with NCI-H1781 cells (setting [1]) below 100 nM. This compound yielded an IC50 against EGFR WT above 10000 nM. On EGFR, the EC50 lay within 100 to 1000 nM; the “Selectivity A431 EC50/BT474 EC50” value is “C (C: ≥ 10 and < 20)”; the “Selectivity A431 EC50/HEKYVMA EC50” value is “D (D: ≥ 5 and < 10)”. For the same compound, the GI50 with BT474 cells (setting [2]) was below 100 nM.
On to `Cc1ccc(Oc2ccc(Nc3ncnc4sc5c(c34)C(C)CN(C(=O)C=CCN(C)C)C5)cc2C)cn1` (single isomer, unassigned) [Compound 105], for which the GI50 with NCI-H1781 cells (setting [1]) was below 100 nM. On EGFR WT, this compound returned a 50% inhibitory concentration (IC50) above 10000 nM. Besides, on EGFR, the EC50 was in the range of 100 to 1000 nM; the “Selectivity A431 EC50/BT474 EC50” value was “C (C: ≥ 10 and < 20)”; the “Selectivity A431 EC50/HEKYVMA EC50” value was “D (D: ≥ 5 and < 10)”. The compound also registered a GI50 in the assay on BT474 cells (setting [2]) below 100 nM.
`COc1ccc(Oc2ccc(Nc3ncnc4sc5c(c34)CCN(C(=O)/C=C/CN(C)C)C5)cc2C)cn1` [Compound 95, (E)-4-(Dimethylamino)-1-(4-((4-((6-methoxypyridin-3-yl)oxy)-3-methylphenyl)amino)-5,6-dihydropyrido[4′,3′:4,5]thieno[2,3-d]pyrimidin-7(8H)-yl)but-2-en-1-one] yielded a GI50 in the assay on NCI-H1781 cells (setting [1]) below 100 nM. Besides, the IC50 on EGFR WT was above 10000 nM. On EGFR, the EC50 was in the range of 100 to 1000 nM; the “Selectivity A431 EC50/BT474 EC50” value was “D (D: ≥ 5 and < 10)”; the “Selectivity A431 EC50/HEKYVMA EC50” value is “C (C: ≥ 10 and < 20)”. The same compound showed a GI50 in the assay with BT474 cells (setting [2]) below 100 nM.
In the assay with NCI-H1781 cells (setting [1]), `Cc1ccc(Oc2ccc(Nc3ncnc4sc5c(c34)CCN(C(=O)/C=C/CN3CC4C(CO)C4C3)C5)cc2C)cn1` (stereo not drawn) [Compound 34] showed a GI50 below 100 nM. The compound also showed an IC50 against EGFR WT above 10000 nM. At EGFR, the EC50 lay in the range of 100 to 1000 nM; the “Selectivity A431 EC50/BT474 EC50” value is “C (C: ≥ 10 and < 20)”; the “Selectivity A431 EC50/HEKYVMA EC50” value is “E (E: >1 and < 5)”. This compound gave a GI50 in the assay on BT474 cells (setting [2]) below 100 nM.
For the compound `Cc1ccc(Oc2ccc(Nc3ncnc4sc5c(c34)CCN(C(=O)/C=C/CN3CCCOCC3)C5)cc2C)cn1` [Compound 42], in the assay on NCI-H1781 cells (setting [1]), the GI50 is below 100 nM. Besides, the IC50 at EGFR WT is above 10000 nM. At EGFR, the EC50 is 100 to 1000 nM; the “Selectivity A431 EC50/BT474 EC50” value was “B (B: ≥ 20 and < 100)”; the “Selectivity A431 EC50/HEKYVMA EC50” value is “B (B: ≥ 20 and < 100)”. In the assay with BT474 cells (setting [2]), the GI50 was below 100 nM.

These data come from US20240391931A1 (Bristol-Myers Squibb Company, priority 2021, published 2024).
